# In patent publication US11925662B2, “Compositions and methods of enhancing anti-tumor response using hybrid neutrophils” (THE TRUSTEES OF THE UNIVERSITY OF PENNSYLVANIA, priority 2015, dated 2024):
# How the values were obtained:
# [1] = system: bone marrow neutrophils (BMNs); test: Differentiation of BMNs into HLA-DR+CD14+ hybrid neutrophils (flow cytometry); format: cell-based, human; conditions: for induction of the CD14+HLA-DR+ hybrid phenotype in BMNs: single factor at the low concentrations found in the TCMs
# Method: Generation of BM-Derived Hybrid and Canonical Neutrophils. To differentiate BMNs into cells that resemble canonical TANs, purified long-lived BMNs were cultured for 7 days with a TCM (50% v/v) collected from a patient's tumor digest where a large number of hybrid TANs were previously unable to be identified by flow cytometry. […] Alternatively, hybrid-neutrophils were differentiated from BMNs with low doses IFN-γ (50 pg/ml) and GM-CSF (50 pg/ml) for 7 days. If it was observed that the formation of hybrid BMNs was less than 80% the HLA-DR+CD14+ hybrid cells from TCM treated BMNs were enriched by positive selection using magnetic beads coated with anti-HLA-DR antibodies or by flow cytometric cell sorting. The proliferation of BMNs during the differentiation was assessed by flow cytometry using BrdU Flow Kit (BD Pharmingen). BMNs were exposed to bromo-deoxyuridine for 6 hours.
# To test the effect of hypoxia on hybrid neutrophil formation, BMNs were cultured for 6 days under normoxic and hypoxic culture conditions maintained in a 37° C. incubator containing 5% CO2, and either atmospheric 21% O2 or 5% O2 condition (Hypoxia Incubator Chamber, Stemcell Techology). BMNs were also cultured in the presence of hybrid-inducing TCM and cobalt chloride (25 μM) (MP Biomedicals LLC), an agent that induces the hypoxia-inducible factor-1α, the main transcriptional factor activated in hypoxic conditions.
# Flow Cytometry. Flow cytometric analysis was performed according to standard protocols. Negative gating was based on a fluorescence minus one (FMO) strategy. To exclude dead cells from analysis, cells were stained with the Fixable Viability Dye eFluor® 450 (ebioscience), LIVE/DEAD® fixable dead cell stains (Molecular probes, Life Technologies), or Zombie Yellow™ Fixable Viability dye (Biolegend). To distinguish early-stage apoptotic and late-stage apoptotic/necrotic cells, cells were first stained with Fixable Viability Dye eFluor® 660 (eBioscience). Then cells were washed with the AnnexinV-Binding Buffer and stained with anti-AnnexinV Abs (FITC) in the AnnexinV-Binding Buffer for 10 min at RT. Cells were washed and analyzed by flow cytometry.
# (§1) For phenotypic and functional analysis PBNs, BMNs, and TANs were gated on live CD11b^+CD15^hiCD66b^+ cells. […] All data were acquired using the BD FACSCalibur or BD LSRFortessa™ (BD Bioscience) flow cytometers and analyzed using FlowJo software (TreeStar Inc.).
# human Ikaros proteins = conditions: literature (Kronke et al., 2014); cited from earlier work
# PD-L1 = PD-L1 expression on HLA-DR+ BMNs (flow cytometry); format: cell-based, human; conditions: IFN-γ at more than 1 ng/ml, with GM-CSF 50 pg/ml
# Description: FIGS. 16A-16F are a series of graphs showing tumor-derived IFN-γ and GM-SCF synergistically differentiate immature neutrophils into a subset of APC-like hybrid neutrophils. […] FIGS. 16E-16F show levels of IFN-γ (FIG. 16E) and GM-CSF (FIG. 16F) in supernatants collected from the cell culture of small-sized tumor digests where APC-like hybrid TANs were or were not previously detected (set-off was >10% among all TANs) (line represents mean±SEM, n=10, Mann-Whitney test for unpaired data). Lower panels represent the correlation between the absolute levels of IFN-γ and GM-CSF in the TCM, with the frequency of hybrid neutrophils in each tumor shown in the upper graphs. Non-parametric Spearman test was used to determine the degree of correlation. Representative dot plots from one of five experiments are shown in (FIG. 16A-16D).
# as §1
molecule,measurement,setting,value
[Cl][Co][Cl] [cobalt chloride],development of hybrid CD14+HLA-DR+ neutrophils,"[1]; with hybrid-inducing TCM, cobalt chloride 25 μM (hypoxia-simulating), 6 days",profoundly inhibited
Nc1cccc2c1CN(C1CCC(=O)NC1=O)C2=O (stereo not drawn) [lenalidomide],development of HLA-DR+CD14+ hybrid neutrophils,"[1]; lenalidomide added to BM neutrophils treated with hybrid-inducing TCM (30% v/v), 6 days",dramatically facilitated
same,effect on Ikaros proteins,human Ikaros proteins,causes proteasomal degradation of the human Ikaros proteins
GM-CSF: Human recombinant GM-CSF purchased from PeproTech,induction of the CD14+HLA-DR+ hybrid phenotype in BMNs,[1],"able to induce the phenotype, although in a relatively low percentage of cells"
IFN-γ: Human recombinant IFN-γ purchased from PeproTech,induction of the CD14+HLA-DR+ hybrid phenotype in BMNs,[1],"able to induce the phenotype, although in a relatively low percentage of cells"
same,expression of PD-L1 on the HLA-DR+ BMNs,PD-L1,gradually induced the expression of PD-L1
